Broadly, the melting point is the temperature, or range, at which the solid turns liquid. In turn, `Cc1cc(O)cc(O)c1C` displayed a melting point of 136 °C.
Turning to `O=C(c1ccccc1)C(Br)C(Br)c1ccccc1` (centres undefined), the melting point turned out to be 156 °C.
In turn, `CCS(=O)(=O)O` gave a melting point of -17 °C.
In turn, `O=C(O)CSc1ccncc1` showed a melting point of 251 to 255 °C.
On to `COc1ccc(C=CNC=O)cc1`, for which the melting point came to 132 °C.
Under `CCOC(=O)c1cnc2ccc(OC(F)(F)F)cc2c1O` stands 297 to 305 °C; under `Cc1cc(C(=O)O)c(C)n1C`, 150 °C; under `Fc1ccc(C(c2ccc(F)cc2)C(Cl)(Cl)Cl)cc1`, 44.5 °C.
Consider `Cc1nc(-c2ccc(CO)cc2)cs1`, for which the melting point fell in the range of 71 to 74 °C.
Consider `C[C@]1(O)C#CCCCCC#C[C@](C)(O)CC1`, for which the melting point came to 144 °C.
Compound `ClCc1cc2ccccc2nc1Cl` gave a melting point of 114 to 115 °C.
Under `COc1cc(N=C=S)c(C(c2ccc(C)o2)c2ccc(C)o2)cc1OC` stands 91 °C; under `COC(=O)c1ccc(=O)oc1`, 70 °C; under `Nc1ccc(Oc2ccc(N)cc2)cc1`, 191 °C.
`CC1(C)C2CCC1(C)C(C(=O)O)C2CC(O)c1ccccc1` (centres undefined) yielded a melting point of 119 °C.
On to `N#CCC[Si](Cl)(Cl)Cl`, for which the melting point lay in the range of 33 to 34 °C.
Turning to `COC1OC(COC(=O)C(C)(C)C)C(O)C(OC(=O)C(C)(C)C)C1O` (centres undefined), the melting point turned out to be 89.8 °C.
As for `NN=C(N)C(S)=NN`, the melting point stood at 150 °C.
`CC(C)(C)OC(=O)N=NC(=O)OC(C)(C)C` returned a melting point of 90 to 92 °C.
Consider `CC1=NN(c2ccccc2)C(=O)/C1=C\c1cccc(/C=C2\C(=O)N(c3ccccc3)N=C2C)c1`, for which the melting point is 220 °C.
In turn, `CC12CCC(O)CC1CCC1C3CCC(O)(C#Cc4ccccc4)C3CCC12` (centres undefined) yielded a melting point of 118 to 125 °C.
`O=C1c2ccccc2-c2c(O)cccc21` showed a melting point of 250 °C.
Consider `O=C(O)c1cccc(-n2cccn2)c1`, for which the melting point was in the range of 154 to 156 °C.
Under `Nc1cc(F)ccc1F` stands 14 °C; under `CCCCCCCCCCCCCC(O)CC` (centres undefined), 50 °C.
Under `Cc1nc(/C(C#N)=C/c2ccc(O)cc2)sc1/N=N/c1ccc(Cl)cc1` stands 230 °C; under `NC(=S)Nc1ccc(I)cc1`, 183 to 184 °C.
For `COc1ncc(F)cc1F`, the melting point came out at 38 °C.
Consider `O=S(=O)(Cl)Cc1ccccc1Cl`, for which the melting point was in the range of 60 to 62 °C.
`O=C(O)c1cncc(Br)c1` came in with a melting point of 184 °C.
`CC(=O)OCCOc1cc(OC(C)=O)c2c(=O)c(OC(C)=O)c(-c3ccc(OCCOC(C)=O)c(OCCOC(C)=O)c3)oc2c1` registered a melting point of 96 to 97 °C.
For `Cc1ccc(C#N)c(N)c1`, the melting point fell in the range of 92 to 93 °C.
In the case of `Brc1ccc(-c2ccno2)s1`, the melting point lay in the range of 66 to 67 °C.
As for `O=C1OC(c2ccc([N+](=O)[O-])cc2)Cc2ccccc21` (centres undefined), the melting point is 184 °C.
The compound `CCn1c(=O)n(CC)c(=O)n(CC)c1=O` gave a melting point of 96.8 °C.
Take `CCCCCCCCCCCCCCCCOC(=O)C(C)O` (centres undefined): the melting point came to 41 °C.
As for `C#CCNC(N)=O`, the melting point lay in the range of 130 to 131 °C.
With `O=C(Oc1ccccn1)Oc1ccccn1`, the melting point was 90 °C.
Take `NC1(P(=O)(O)O)CCCC1`: the melting point lay within 274 to 276 °C.
For `O=C1c2ccccc2-c2ccc(Cl)cc21`, the melting point was determined as 126 °C.
Under `Cc1ccc(C(=O)c2ccccc2C(=O)O)cc1` stands 146 °C; under `OC1CC2CCC1C2` (centres undefined), 149 °C.
Under `CC(=O)CCc1cc2c(cc1[N+](=O)[O-])CCC(C)N2C(=O)c1ccc([N+](=O)[O-])cc1` (centres undefined) stands 173 °C.
Under `CSc1nsc(SC)c1C(=O)Nc1ccc(Cl)cc1` stands 168 to 170 °C.

The record behind these values is a melting point compilation (Tetko et al.).
